{"source": "patent US7820628B2", "about": "“Tumor lesion regression and conversion in situ into autologous tumor vaccines by compositions that result in anti-Gal antibody binding” (University of Massachusetts Medical School, priority 2005, dated 2010)", "test_system": "human natural anti-Gal", "test": "TLC immunostaining of red blood cell glycolipids with human natural anti-Gal", "format": "binding", "settings": "glycolipids on thin layer chromatography plates", "excerpt": "A rich source for α-gal glycolipids is rabbit red blood cells. The two major glycosphingolipids (GSL), i.e. glycolipids with ceramide tail, in rabbit red blood cell membranes are ceramide (Cer) trihexoside (CTH, with 3 sugars [hexoses], present also in human red blood cells) with the structure Galα1-4Galβ1-4Glc-Cer and ceramide pentahexoside (CPH, with 5 sugars [hexoses]) with α-gal epitopes as terminal part of the CPH structure of Galα1-3Galβ1-4GlcNAcβ1-3Galβ1-4Glc-Cer (Eto T, Iichikawa Y, Nishimura K, Ando S, Yamakawa T J. Biochem. (Tokyo) 1968; 64: 205-13, and Stellner K, Saito H, Hakomori S. Arch. Biochem. Biophys. 1973; 133: 464-72) (See FIG. 1 and FIG. 6A, lane 1).\nThe use of α-gal glycolipids in the clinical setting may require much more material than that isolated from rabbit red blood cell membranes. The logistic limitations in supplies of large amounts of rabbit red blood cells can be overcome by the use of bovine red blood cells (i.e., for example, cow) instead of rabbit red blood cells since there is no practical limit to the amounts of bovine blood which can be supplied for preparation of α-gal glycolipids. […]", "data": [{"substance": "Galα1-3Galβ1-4GlcNAcβ1-3Galβ1-4Glc-Cer [CPH]", "values": [{"measurement": "anti-Gal binding on TLC immunostaining", "result": "binding of the antibody to CPH"}]}]}
